ChEMBL document CHEMBL1128027, “Total synthesis of a novel benz[A]anthracycline analog of the antitumor agent 4-demethoxydaunorubicin” (Bioorg Med Chem Lett, 1994)

Tested on: CCRF-CEM
Test: Cytotoxicity tested in vitro against T-lymphoid leukemic cell line
Format: functional, cell-based
Details: Homo sapiens

In the case of CC(=O)[C@@]1(O)Cc2c3c(c(O)c(O)c2[C@H](OC2CC(N)C(O)C(C)O2)C1)C(=O)c1ccccc1C3=O (stereo partly drawn), the IC50 is reported as 1000 nM.

Molecule CC(=O)[C@]1(O)Cc2c3c(c(O)c(O)c2[C@@H](OC2CC(N)C(O)C(C)O2)C1)C(=O)c1ccccc1C3=O (stereo partly drawn) has an IC50 of 1000 nM.

Molecule COc1cccc2c1C(=O)c1c(O)c3c(c(O)c1C2=O)C[C@@](O)(C(=O)CO)C[C@@H]3O[C@H]1C[C@H](N)[C@H](O)[C@H](C)O1 [DOXORUBICIN] has an IC50 of 20 nM.
